From ChEMBL document CHEMBL1201862, “PubChem BioAssay data set” (2004) come the findings set out here.

What all share (assay): growth of human tumour cells (NCI), 48 h
For assay [1], the system named is SK-MEL-5.
For assay [2], the system named is UACC-62.
The subject of assay [3] is SF-268.
In assay [4] the test system is SNB-75.
Assay [5] concerns IGROV-1.
Assay [6] concerns SF-539.
The subject of assay [7] is HCT-116.
Assay [8] relates to RPMI-8226.
Assay [9] deals with EKVX.
The test system of assay [10] is NCI-H23.
The test system of assay [11] is LOX IMVI.
The subject of assay [12] is RXF 393.
Assay [13] deals with DMS-114.
In assay [14] the test system is HL-60.
The subject of assay [15] is 786-0.
Assay [16] relates to Malme-3M.
The test system of assay [17] is SK-MEL-28.
For assay [18], the system named is SNB-19.
For assay [19], the system named is SN12C.

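48-hour exposure; five concentrations; linearly interpolated endpoints. Abbreviation: GI50, concentration required for 50% inhibition of growth.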 The source made the active and inactive calls. No stated cut-off is given here; in the data, active = GI50 up to about 1.1 µM and inactive = higher.

`C/C(CC(=O)Nc1cccc([N+](=O)[O-])c1)=N\NC(=O)CC#N`: the GI50 in assay [1], in assay [2], in [3], in assay [4], in [5] and in assay [6] was > 100 µM (inactive) in each case. The GI50 in [7], in assay [8], in [9], in assay [10], in assay [11] and in assay [12] was > 100 µM (inactive) in each case. Further, the GI50 in [13], in assay [14], in assay [15], in assay [16] and in assay [17] was > 100 µM (inactive) in each case.

For `COc1ccc(C(=O)Cc2ccc(Br)cc2)cc1OC`, the GI50 in assay [1] was > 100 µM (inactive); in [2], > 100 µM (inactive); in [3], > 100 µM (inactive); in [18], > 100 µM (inactive); in assay [4] it was 27.5 µM (inactive); in [5], > 100 µM (inactive). In addition, the GI50 in [6], in [7], in assay [8], in assay [9], in assay [10] and in [11] was > 100 µM (inactive) each time. Moreover, the GI50 in assay [12] was 72.8 µM (inactive); in [19], > 100 µM (inactive); in assay [13], > 100 µM (inactive); in assay [14], > 100 µM (inactive); in assay [16], > 100 µM (inactive).

On to `C/C(=N/Nc1ccc([N+](=O)[O-])cc1[N+](=O)[O-])C(CC(C(=O)NCc1ccccc1)/C(C)=N\Nc1ccc([N+](=O)[O-])cc1[N+](=O)[O-])C(=O)NCc1ccccc1` (stereo not drawn), for which the GI50 in assay [2] is 11.7 µM (inactive); in assay [3] it was 4.42 µM (inactive); in assay [18], 15.2 µM (inactive); in assay [4] it was 2.96 µM (inactive); in assay [5] it was 13.7 µM (inactive); in assay [6], 4.06 µM (inactive). The GI50 in assay [7] was 4.88 µM (inactive); in [8], 14.7 µM (inactive); in assay [9], 12.7 µM (inactive); in assay [10], 13.3 µM (inactive); in assay [12], 4.24 µM (inactive); in [19], 4.05 µM (inactive). The GI50 is 9.91 µM (inactive) in assay [13]; < 0.01 µM (active) in [14]; 3.24 µM (inactive) in assay [15]; 12.2 µM (inactive) in assay [16]; 7.8 µM (inactive) in assay [17].

In the case of `O=C(Cn1ccnc1[N+](=O)[O-])c1ccc(F)cc1`, the GI50 in assay [1], in assay [2], in assay [3], in assay [18], in [4] and in assay [5] was > 100 µM (inactive) in each case. The GI50 in [6], in [8], in assay [9], in [10], in assay [11] and in assay [12] was > 100 µM (inactive) in each case. Also, the GI50 in [19], in [13], in [14], in [15], in assay [16] and in assay [17] was > 100 µM (inactive) throughout.

Take `CC(=O)c1c2c(cc3c1CC1(C3)Cc3cc4c(c(C(=O)O)c3C1)CCC4)CCC2` (stereo not drawn): the GI50 in assay [1] was 35.7 µM (inactive); in [2], 28.6 µM (inactive); in assay [3], 36.8 µM (inactive); in assay [18] it was 45.3 µM (inactive); in assay [4], 69.8 µM (inactive); in assay [5] it was 50.7 µM (inactive). The GI50 in assay [6] was 19.2 µM (inactive); in assay [7] it was 24.9 µM (inactive); in [10], 26.2 µM (inactive); in assay [11] it was 32.4 µM (inactive); in assay [12], 45.5 µM (inactive); in assay [19], 31.4 µM (inactive). The GI50 in assay [13] was 36.3 µM (inactive); in assay [14], 16.7 µM (inactive); in assay [15], 47.2 µM (inactive); in assay [16], 29.4 µM (inactive); in assay [17] it was 44.5 µM (inactive).

Take `COC(=O)C1(c2ccc(OC)cc2)NC(c2ccccc2)C2C(=O)N(c3ccc(OC)cc3)C(=O)C21` (stereo not drawn): the GI50 in assay [1], in [2], in assay [3], in [18], in assay [4] and in assay [5] was > 100 µM (inactive) in each case. Moreover, the GI50 in assay [6], in [8], in assay [9], in assay [10], in assay [11] and in [12] was > 100 µM (inactive) each time. The GI50 in assay [19], in assay [13], in assay [14], in [15], in [16] and in [17] was > 100 µM (inactive) throughout.

For the molecule `COc1cccc(OC)c1C(=O)OCc1ccccc1`, the GI50 in assay [1], in assay [2], in assay [3], in assay [4], in [5] and in assay [6] was > 100 µM (inactive) each time. In addition, the GI50 in [7], in [8], in [9], in [10], in assay [12] and in assay [19] was > 100 µM (inactive) in each case. In addition, the GI50 in [13], in [14], in [15] and in assay [17] was > 100 µM (inactive) in each case.

Regarding `Cc1c2cc[n+](C)cc2c(C)c2c1[nH]c1ccccc12`, the GI50 in [1] was 1.35 µM (inactive); in assay [2], 4.5 µM (inactive); in assay [3], 0.408 µM (active); in assay [18], 0.274 µM (active); in [4], 0.193 µM (active); in assay [5], 3.44 µM (inactive). Further, the GI50 in assay [6] was 0.468 µM (active); in assay [7], 4.22 µM (inactive); in assay [8] it was 8.49 µM (inactive); in assay [9], 0.718 µM (active); in assay [10], 0.714 µM (active); in [11], 10.9 µM (inactive). The GI50 in assay [12] is 1.75 µM (inactive); in assay [19], 0.16 µM (active); in assay [13] it was 0.275 µM (active); in [14] it was 9.62 µM (inactive); in [16], 0.855 µM (active); in [17] it was 1.34 µM (inactive).
